Data reported in PMC12931196, “Vm–MSI: a Vancomycin–Antimicrobial Peptide Conjugate Combating Resistant Bacteria and Broadening the Antimicrobial Spectrum” (Advanced Science, 2025).
In brackets after ≈: the same amount, converted by molar mass. Several values for one entry are separate records, joined by “and”; a condition that tells them apart may be missing. Equal values may be shown once.

How the values were obtained:
[1] = tested on: VRSA 52 and E. coli ATCC25922; assay: ROS fluorescent probe assay (DCFH‐DA); type: cell-based; details: DCFH‐DA 10 µM, 1 h
Method: In accordance with the experimental methods described in previous literature,^[ [42] ^] […] The DCFH‐DA probe (Sigma‐Aldrich, US) was then added at a final concentration of 10 µM, and the mixture was incubated for 30 min at 37 °C, protected from light. After incubation, the samples were centrifuged to remove residual DCFH‐DA. The stained bacterial solution was transferred to a 96‐well black plate and mixed with varying concentrations of drugs (vancomycin, MSI‐78, and Vm‐MSI). Polymyxin B was used as a positive control, while PBS buffer served as a negative control. The plates were incubated at 37 °C for 1 h, protected from light. Finally, fluorescence was recorded using a Tecan Infinite M1000 PRO microplate reader (Tecan, Switzerland) with an excitation wavelength of 488 nm and an emission wavelength of 525 nm.

S. aureus CMCC26003 = assay: Bacterial killing kinetics; details: 4 µM, sampled 0-180 min
E. coli ATCC25922 [2] = assay: Live/dead bacteria staining (PI/SYTO9, CLSM); type: cell-based; details: 4 µM, 1 h
[3] = tested on: multidrug‐resistant A. baumannii; assay: Mouse lung infection model; type: in vivo, mice; details: single i.p. 5 mg kg^−1 at 0.5 h post‐infection; lung CFU after one day
Method: The experimental methods employed in this study were based on previously published literature.^[ [64] ^] 6–8 weeks old female mice weighing 18–20 g were selected for the study, and colonization was performed by administering 50 µL of a multidrug‐resistant A. baumannii strain (at a concentration of 1 × 10^7 CFU/mL) via tracheal intubation into the lungs of the mice for a duration of 0.5 h. After this period, an intraperitoneal injection of the drug at a dosage of 5 mg kg^−1 was administered. PBS served as a negative control, while ciprofloxacin was used as a positive control. After 24 h, the mice were euthanized, and their lung tissues were excised, homogenized, and diluted 10000 fold for colony counting. The lung tissue homogenate was then centrifuged to obtain the supernatant, which was further diluted 5 fold. The expression levels of inflammatory factors IL‐6 and TNF‐α in the supernatant were measured using an ELISA assay (ThermoFisher, US).

K. pneumoniae 9883 = assay: microbe, parasite or virus in culture; details: Klebsiella pneumoniae, 9883, 18 h
[4] = tested on: ompR, csgA, csgD, mlrA, and rcsB expression in E. coli ATCC25922; assay: qPCR analysis of biofilm‐related genes; details: 8 µM, 48 h static; qPCR ΔΔCt
MDR P. aeruginosa 5 = assay: microbe, parasite or virus in culture; details: Pseudomonas aeruginosa, 18 h
A. baumannii ATCC19606 = assay: microbe, parasite or virus in culture; details: Acinetobacter baumannii, ATCC19606, 18 h
MRSA ATCC43300 = assay: microbe, parasite or virus in culture; details: Staphylococcus aureus, 18 h
E. coli ATCC25922 [5] = assay: microbe, parasite or virus in culture; details: Escherichia coli, ATCC25922, 18 h
S. flexneri ATCC12022 = assay: MIC, 2 fold broth microdilution; type: cell-based; details: Shigella flexneri, MH broth, 37 °C, 18 h, OD600, read-out: MIC
Method: (§1) The 2 fold broth microdilution method was performed following previously established protocols.^[ [65], [66] ^] A total of 29 strains of human pathogenic microorganisms (11 Gram‐positive and 18 Gram‐negative) were included in the assay. Standard strains were maintained in our laboratory, and clinical isolates were obtained from the Fourth Affiliated Hospital of Soochow University. […] Gradient dilutions of the drugs (vancomycin, AMPs, and vancomycin‐AMP conjugates) were prepared in 96‐well plates, with 50 µL of each drug solution added per well. For the vancomycin and AMP mixture, 25 µL of vancomycin was combined with 25 µL of AMP at the corresponding monomer gradient concentration, resulting in a total volume of 50 µL. […] Following incubation, bacterial growth was assessed by measuring absorbance at 600 nm. The MIC was defined as the lowest concentration at which no bacterial growth was detected.

S. typhimurium CICC21483 = assay: MIC, 2 fold broth microdilution; type: cell-based; details: Salmonella enterica, MH broth, 37 °C, 18 h, OD600, read-out: MIC
Method: as §1

P. aeruginosa CMCC10104 = assay: MIC, 2 fold broth microdilution; type: cell-based; details: Pseudomonas aeruginosa, MH broth, 37 °C, 18 h, OD600, read-out: MIC
Method: as §1

P. aeruginosa 60357 = assay: MIC, 2 fold broth microdilution; type: cell-based; details: Pseudomonas aeruginosa, MH broth, 37 °C, 18 h, OD600, read-out: MIC
Method: as §1

S. flexneri CMCC51571 = assay: MIC, 2 fold broth microdilution; type: cell-based; details: Shigella flexneri, MH broth, 37 °C, 18 h, OD600, read-out: MIC
Method: as §1

[6] = tested on: V. parahemolyticus ATCC17802; assay: MIC, 2 fold broth microdilution; type: cell-based; details: MH broth, 37 °C, 18 h, OD600, read-out: MIC
Method: as §1

B. cereus CMCC63301 = assay: MIC, 2 fold broth microdilution; type: cell-based; details: Bacillus cereus, MH broth, 37 °C, 18 h, OD600, read-out: MIC
Method: as §1

P. aeruginosa 52097 = assay: MIC, 2 fold broth microdilution; type: cell-based; details: Pseudomonas aeruginosa, MH broth, 37 °C, 18 h, OD600, read-out: MIC
Method: as §1

VRSA 52 = assay: Mouse skin infection model; type: in vivo, BALB/c mice
[7] = tested on: S. aureus CMCC26003 persister cells; assay: Anti‐persister cells assay; details: 4 µM, 48 h, after 20× MIC ciprofloxacin for 8 h
C. perfringens ATCC13124 = assay: microbe, parasite or virus in culture; details: Clostridium perfringens, ATCC13124, 18 h
[8] = tested on: E. coli ATCC25922 biofilms; details: 8 µM, 4 h, SYTO9/PI CLSM

Question: Which “intracellular ROS production” value [1] does the source give for `CN[C@H](CC(C)C)C(=O)N[C@H]1C(=O)N[C@@H](CC(N)=O)C(=O)N[C@H]2C(=O)N[C@H]3C(=O)N[C@H](C(=O)N[C@H](C(=O)O)c4cc(O)cc(O)c4-c4cc3ccc4O)[C@H](O)c3ccc(c(Cl)c3)Oc3cc2cc(c3O[C@@H]2O[C@H](CO)[C@@H](O)[C@H](O)[C@H]2O[C@H]2C[C@](C)(N)[C@H](O)[C@H](C)O2)Oc2ccc(cc2Cl)[C@H]1O` [Vm, vancomycin] here?
Answer: did not induce ROS production

Question: And the “time to complete eradication of all viable bacteria” value (S. aureus CMCC26003)?
Answer: > 180 min

Question: What about the “bacteria killed (mortality)” value (E. coli ATCC25922 [2]) of the same compound?
Answer: 6%

Question: And the “lung‐colonizing bacteria eliminated” value [3]?
Answer: no antibacterial activity

Question: And the MIC (K. pneumoniae 9883)?
Answer: > 67.3 µM and > 100 µg/mL

Question: And the “csgA expression relative to control” value [4]?
Answer: 0.8

Question: And the “csgD expression relative to control” value [4]?
Answer: 0.6

Question: What about the “rcsB up‐regulation relative to control” value [4] of the same compound?
Answer: 1.5 fold

Question: And the MIC (MDR P. aeruginosa 5)?
Answer: > 67.3 µM

Question: And the MIC (A. baumannii ATCC19606)?
Answer: > 67.3 µM and > 100 µg/mL

Question: What about the MIC (MRSA ATCC43300) of the same compound?
Answer: 3.16 µM and 4.69 µg/mL

Question: And the MIC (E. coli ATCC25922 [5])?
Answer: > 67.3 µM and > 100 µg/mL

Question: What about the MIC (S. flexneri ATCC12022) of the same compound?
Answer: 50.5 µM (≈ 73.2 µg/mL)

Question: And the MIC (S. typhimurium CICC21483)?
Answer: > 67.3 µM

Question: And the MIC (P. aeruginosa CMCC10104)?
Answer: > 67.3 µM

Question: And the MIC (P. aeruginosa 60357)?
Answer: > 67.3 µM

Question: What about the MIC (S. flexneri CMCC51571) of the same compound?
Answer: > 67.3 µM

Question: What about the MIC [6] of the same compound?
Answer: 50.5 µM (≈ 73.2 µg/mL)

Question: And the MIC (B. cereus CMCC63301)?
Answer: 50.5 µM (≈ 73.2 µg/mL)

Question: What about the MIC (P. aeruginosa 52097) of the same compound?
Answer: > 67.3 µM

Question: What about the “reduction in bacterial count within the wound” value (VRSA 52; topical 2 mg kg^−1 at 6, 24 and 48 h post‐infection, VRSA 52 1 × 10^8 CFU mL^−1, wound CFU after 3 days) of the same compound?
Answer: ≈ 30%

Question: And the “pro‐inflammatory cytokines TNF‐α and IL‐6 at the infection site” value (VRSA 52; topical 2 mg kg^−1 ×3, ELISA of wound supernatant)?
Answer: didn't effectively decrease

Question: And the skin wound healing (VRSA 52; topical 2 mg kg^−1 ×3, observed to day 12)?
Answer: remained unhealed

Question: What about the “reduction in the number of persister cells” value [7] of the same compound?
Answer: one‐order reduction

Question: And the MIC (C. perfringens ATCC13124)?
Answer: 25.2 µM (≈ 36.6 µg/mL)

Question: And the “killing at the bottom of the biofilm” value [8]?
Answer: 20%

Question: And the “killing at the surface of the biofilm” value [8]?
Answer: 60%
